Experimental findings from ChEMBL document CHEMBL3870306, “Selenoureido-iminosugars: A new family of multitarget drugs” (Eur J Med Chem, 2016) are described below.

Bounds are passed on as bounds.

One experiment concerns Helix pomatia. The experiment in a line: Inhibition of Helix-pomatia beta-mannosidase at 0.5 mM using o-orp-nitrophenyl-glycopyranoside as substrate measured every 30 sec for 3 mins relative to control.
Experiment [1] deals with T1, Alpha-mannosidase (Canavalia ensiformis, UniProt C0HJB3).
T1 sequence (C0HJB3 whole entry): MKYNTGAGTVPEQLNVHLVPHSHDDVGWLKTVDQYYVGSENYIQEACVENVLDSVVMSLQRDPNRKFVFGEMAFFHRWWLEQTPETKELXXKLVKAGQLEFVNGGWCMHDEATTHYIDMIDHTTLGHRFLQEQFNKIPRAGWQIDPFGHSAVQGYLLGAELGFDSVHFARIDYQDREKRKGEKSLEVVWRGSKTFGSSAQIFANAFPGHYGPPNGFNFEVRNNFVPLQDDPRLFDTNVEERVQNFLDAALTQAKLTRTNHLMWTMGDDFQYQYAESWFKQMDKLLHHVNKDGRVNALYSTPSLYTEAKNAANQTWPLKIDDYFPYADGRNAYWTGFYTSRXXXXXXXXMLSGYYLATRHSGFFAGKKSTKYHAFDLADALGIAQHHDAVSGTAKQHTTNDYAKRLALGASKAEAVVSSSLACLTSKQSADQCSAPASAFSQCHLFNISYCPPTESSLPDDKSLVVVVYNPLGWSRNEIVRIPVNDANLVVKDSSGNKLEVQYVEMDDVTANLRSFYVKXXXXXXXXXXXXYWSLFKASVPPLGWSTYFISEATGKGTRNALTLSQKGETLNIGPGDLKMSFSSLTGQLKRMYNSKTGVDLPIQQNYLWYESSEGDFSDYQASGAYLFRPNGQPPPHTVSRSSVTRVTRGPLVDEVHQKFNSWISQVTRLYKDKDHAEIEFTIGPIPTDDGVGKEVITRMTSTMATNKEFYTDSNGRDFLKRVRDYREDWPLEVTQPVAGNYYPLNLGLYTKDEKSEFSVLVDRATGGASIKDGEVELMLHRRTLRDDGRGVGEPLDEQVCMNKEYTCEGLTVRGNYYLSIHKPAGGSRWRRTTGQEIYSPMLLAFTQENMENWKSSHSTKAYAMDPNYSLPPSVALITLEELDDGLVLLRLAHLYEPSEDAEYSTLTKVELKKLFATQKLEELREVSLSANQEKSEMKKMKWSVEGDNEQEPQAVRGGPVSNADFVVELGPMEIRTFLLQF
The experiment in a line: Mixed-type inhibition of jack bean alpha-mannosidase assessed as enzyme-inhibitor complex using o-orp-nitrophenyl-glycopyranoside as substrate by Lineweaver-Burk plot method.

The target in experiment [2] is T2, Acetylcholinesterase (Electrophorus electricus, UniProt O42275). The experiment in a line: Mixed-type inhibition of electric eel acetylcholinesterase assessed as enzyme-inhibitor complex by Lineweaver-Burk plot method.
T2 sequence (O42275 whole entry): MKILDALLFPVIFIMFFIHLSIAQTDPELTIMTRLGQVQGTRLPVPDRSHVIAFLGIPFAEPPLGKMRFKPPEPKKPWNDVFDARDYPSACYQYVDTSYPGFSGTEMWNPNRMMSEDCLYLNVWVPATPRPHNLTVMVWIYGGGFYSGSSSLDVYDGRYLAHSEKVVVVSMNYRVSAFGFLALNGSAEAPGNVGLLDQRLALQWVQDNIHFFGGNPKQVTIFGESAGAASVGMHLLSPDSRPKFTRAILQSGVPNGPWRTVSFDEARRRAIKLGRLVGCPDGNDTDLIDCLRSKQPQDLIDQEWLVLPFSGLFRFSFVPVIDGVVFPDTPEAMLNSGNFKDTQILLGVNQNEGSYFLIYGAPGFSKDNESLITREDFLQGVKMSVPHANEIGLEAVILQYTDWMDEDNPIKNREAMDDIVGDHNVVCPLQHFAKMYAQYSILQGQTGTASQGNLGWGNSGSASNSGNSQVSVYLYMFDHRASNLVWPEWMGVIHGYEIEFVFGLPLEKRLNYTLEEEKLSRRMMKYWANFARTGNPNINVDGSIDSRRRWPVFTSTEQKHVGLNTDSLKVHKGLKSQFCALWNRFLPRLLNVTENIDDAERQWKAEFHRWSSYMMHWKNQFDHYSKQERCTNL
For a further experiment, the system named is Escherichia coli. The experiment in a line: Inhibition of Escherichia coli beta-galactosidase at 0.5 mM using o-orp-nitrophenyl-glycopyranoside as substrate measured for 120 sec relative to control.
The next experiment relates to Aspergillus oryzae. Description: Inhibition of Aspergillus oryzae beta-galactosidase at 0.5 mM using o-orp-nitrophenyl-glycopyranoside as substrate measured for 120 sec relative to control.
The nature of experiment [3]: Antiproliferative activity against human HBL100 cells after 48 hrs by sulforhodamine B assay. The class given is functional. To be noted: HBL-100, 48 h.
The test system of a further experiment is Prunus dulcis. Description: Inhibition of almond beta-glucosidase at 500 uM using o-orp-nitrophenyl-glycopyranoside as substrate measured for 120 sec relative to control.
Experiment [4] has as its target T1, Alpha-mannosidase. The experiment in a line: Mixed-type inhibition of jack bean alpha-mannosidase assessed as enzyme-substrate-inhibitor complex using o-orp-nitrophenyl-glycopyranoside as substrate by Lineweaver-Burk plot method.
Experiment [5] can be described thus: Antiproliferative activity against human A549 cells after 48 hrs by sulforhodamine B assay. It counts as functional. The note with it: A549, 48 h. (Sulforhodamine B stains cellular protein and so reports cell mass.)
The target of experiment [6] is T2, Acetylcholinesterase. Description: Mixed-type inhibition of electric eel acetylcholinesterase assessed as enzyme-substrate-inhibitor complex by Lineweaver-Burk plot method.
Experiment [7] in a line: Antiproliferative activity against human T47D cells after 48 hrs by sulforhodamine B assay. The class given is functional.
In experiment [8] the target is Alpha-galactosidase (Coffea arabica) (UniProt Q42656). Description: Inhibition of green coffee beans alpha-galactosidase at 0.5 mM using o-orp-nitrophenyl-glycopyranoside as substrate measured for 120 sec relative to control.
Alpha-galactosidase (Coffea arabica), sequence (Q42656 16-378 limits assumed): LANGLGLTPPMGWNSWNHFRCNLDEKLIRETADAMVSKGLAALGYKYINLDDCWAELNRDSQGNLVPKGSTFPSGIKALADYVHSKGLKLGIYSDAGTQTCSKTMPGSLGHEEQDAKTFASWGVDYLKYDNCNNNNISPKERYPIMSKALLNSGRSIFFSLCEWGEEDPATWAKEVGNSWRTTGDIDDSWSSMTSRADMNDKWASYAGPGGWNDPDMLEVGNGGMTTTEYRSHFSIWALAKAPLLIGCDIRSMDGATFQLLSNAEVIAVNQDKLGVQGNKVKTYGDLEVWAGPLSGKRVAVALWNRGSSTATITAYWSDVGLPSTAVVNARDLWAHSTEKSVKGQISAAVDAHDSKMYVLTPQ
Experiment [9] is described as follows: Glutathione peroxidase like activity assessed as hydrogen peroxide reduction by measuring Kcat to Kuncat ratio measured for 180 sec in prescence of varying levels of Phsh by Hanes-Woof plot method.
Experiment [10] is described as follows: Glutathione peroxidase like activity assessed as hydrogen peroxide reduction by measuring compound Kcat measured for 180 sec in prescence of varying levels of Phsh by Hanes-Woof plot method.
Experiment [11] in a line: Selectivity ratio of Ki for Bakers yeast alpha-glucosidase to Ki for almond beta-glucosidase.
Experiment [12] can be described thus: Antiproliferative activity against human HeLa cells after 48 hrs by sulforhodamine B assay. The class given is functional.
The test system of the next experiment is Saccharomyces cerevisiae. The experiment in a line: Inhibition of Bakers yeast alpha-glucosidase at 500 uM using o-orp-nitrophenyl-glycopyranoside as substrate measured for 120 sec relative to control.
Experiment [13] is described as follows: Antiproliferative activity against human SW1573 cells after 48 hrs by sulforhodamine B assay. The note with it: SW1573, 48 h. The class given is functional.
A short description of experiment [14]: Antiproliferative activity against human WiDr cells after 48 hrs by sulforhodamine B assay. The class given is functional.
Experiment [15] is described as follows: Glutathione peroxidase like activity assessed as hydrogen peroxide reduction by measuring compound Km measured for 180 sec in prescence of varying levels of Phsh by Hanes-Woof plot method.
Experiment [16] in a line: Inhibition of Bakers yeast alpha-glucosidase using o-orp-nitrophenyl-glycopyranoside as substrate by Lineweaver-Burk plot method. Also on record: species or system Saccharomyces cerevisiae.
The target in experiment [17] is T3, Alpha-mannosidase (Canavalia ensiformis) (UniProt C0HJB3).
T3 sequence (whole entry): T1 sequence (C0HJB3 whole entry)
Description: Inhibition of jack bean alpha-mannosidase at 0.5 mM using o-orp-nitrophenyl-glycopyranoside as substrate measured every 30 sec for 3 mins relative to control.

The nature of experiment [18]: Glutathione peroxidase like activity assessed as hydrogen peroxide reduction by measuring compound Vmax measured for 180 sec in prescence of varying levels of Phsh by Hanes-Woof plot method.
Experiment [19] can be described thus: Competitive inhibition of almond beta-glucosidase using o-orp-nitrophenyl-glycopyranoside as substrate by Lineweaver-Burk plot method. Also on record: species or system Prunus dulcis.
In experiment [20] the target is Acetylcholinesterase (Electrophorus electricus) (UniProt O42275). The experiment in a line: Inhibition of electric eel acetylcholinesterase at 500 uM assessed as thep-nitrophenolate formation measured for 120 sec relative to control.
Acetylcholinesterase (Electrophorus electricus), sequence (O42275 24-633 limits assumed): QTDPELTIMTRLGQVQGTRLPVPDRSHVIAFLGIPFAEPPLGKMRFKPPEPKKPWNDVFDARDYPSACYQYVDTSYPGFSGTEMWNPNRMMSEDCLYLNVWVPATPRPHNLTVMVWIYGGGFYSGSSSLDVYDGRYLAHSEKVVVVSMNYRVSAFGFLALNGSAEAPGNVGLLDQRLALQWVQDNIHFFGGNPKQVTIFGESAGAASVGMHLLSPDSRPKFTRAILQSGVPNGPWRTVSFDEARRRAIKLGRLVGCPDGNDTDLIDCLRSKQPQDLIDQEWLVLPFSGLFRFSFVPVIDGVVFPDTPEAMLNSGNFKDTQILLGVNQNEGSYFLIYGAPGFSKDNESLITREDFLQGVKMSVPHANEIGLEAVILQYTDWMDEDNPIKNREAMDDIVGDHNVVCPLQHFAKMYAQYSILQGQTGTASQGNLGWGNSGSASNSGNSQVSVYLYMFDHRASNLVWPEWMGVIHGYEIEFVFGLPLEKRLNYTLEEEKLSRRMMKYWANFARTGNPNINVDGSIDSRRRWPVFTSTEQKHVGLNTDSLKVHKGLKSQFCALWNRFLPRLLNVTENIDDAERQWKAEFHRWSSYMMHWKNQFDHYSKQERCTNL
Experiment [21] can be described thus: Glutathione peroxidase like activity assessed as hydrogen peroxide reduction by measuring reaction rate at 0.1 mM measured for 180 sec in presence of PhSH relative to control.
The nature of experiment [22]: Glutathione peroxidase like activity assessed as hydrogen peroxide reduction by measuring reaction rate at 0.1 mM measured for 180 sec in presence of PhSH relative to (PhSe)2.
Experiment [23] can be described thus: Inhibition of almond beta-glucosidase using p-Nitrophenyl beta-D-glucopyranoside as substrate. Also on record: species or system Prunus dulcis.
A short description of experiment [24]: Inhibition of Bakers yeast alpha-glucosidase using p-Nitrophenyl alpha-D-glucopyranoside as substrate. Also on record: species or system Saccharomyces cerevisiae.
The target of experiment [25] is T1, Alpha-mannosidase. The experiment in a line: Inhibition of jack bean alpha-mannosidase using o-orp-nitrophenyl-glycopyranoside as substrate by Lineweaver-Burk plot method.

By inhibition is commonly meant how much of the control response was suppressed. For orientation: Ki means the equilibrium dissociation constant of an inhibitor or competing ligand from its target. The term GI50 denotes the concentration that inhibits growth by half. A lower GI50 goes with greater sensitivity of the cells. Usually kcat stands for the number of substrate molecules converted per active site and unit of time at saturation. As usually defined, the Km is the concentration of substrate that gives half-maximal velocity. Usually Vmax stands for the top rate of the reaction or transport when substrate is in excess. Turning to `OC[C@@H]1[C@@H](O)[C@H](O)[C@@H](O)CN1CCCCCNC(=[Se])Nc1ccc(Br)cc1`, the inhibition is 18% in the experiment on Helix pomatia; 12% in the experiment on Escherichia coli; 42% with Aspergillus oryzae; > 50% in the experiment on Prunus dulcis; 7% in experiment [8]; > 50% in the experiment with Saccharomyces cerevisiae. For the same compound, the inhibition in experiment [17] and in experiment [20] was > 50% each time. In addition, the Ki at Alpha-mannosidase [1] came out at 390 µM; on Acetylcholinesterase [2] it was 5.8 µM; on Alpha-mannosidase [4], 290 µM; on Acetylcholinesterase [6], 11.2 µM; in experiment [16] it was 30.7 µM; in experiment [19], 1.6 µM. Besides, the GI50 in experiment [3] is 7.6 µM; in experiment [5], 7 µM; in experiment [7] it was 12 µM; in experiment [12], 27 µM; in experiment [13], 24 µM; in [14] it was 21 µM. The Ratio in [9] turned out to be 292. Also, the turnover number (kcat) in experiment [10] amounted to 0.016 s⁻¹. In addition, the Ratio Ki in experiment [11] was < 36. Also, the Michaelis-Menten constant (Km) in experiment [15] worked out at 330 µM. In addition, the Vmax in experiment [18] stood at 96.4 µM/min.
Turning to `c1ccc(COC[C@H]2NC[C@H](OCc3ccccc3)[C@@H](OCc3ccccc3)[C@@H]2OCc2ccccc2)cc1`, the results for the fold change (FC) in experiment [21] and in [22] were 23.6 to 46.1 and 18, respectively.
Turning to `O=c1c2ccccc2[se]n1-c1ccccc1`, the fold change (FC) in [21] was 0.6.
With `OC[C@H]1NC[C@H](O)[C@@H](O)[C@@H]1O` [DUVOGLUSTAT], the Ki stood at 47 µM in experiment [23] and 25 µM in experiment [24].
For the compound `Cc1ccc(NC(=[Se])NCCCCCN2C[C@H](O)[C@@H](O)[C@H](O)[C@H]2CO)cc1`, the inhibition in the experiment with Helix pomatia is 16%; in the experiment on Escherichia coli, 31%; with Aspergillus oryzae it was 20%; in the experiment with Prunus dulcis, > 50%; in experiment [8] it was 2%; in the experiment on Saccharomyces cerevisiae it was > 50%. Besides, the figures for the inhibition in experiment [17] and in experiment [20] were 46% and > 50%, respectively. Moreover, the Ki at Acetylcholinesterase [2] was 105 µM; on Acetylcholinesterase [6], 16.9 µM; in experiment [16], 35 µM; in [19] it was 3.7 µM. Besides, the GI50 worked out at 76 µM in experiment [3]; 45 µM in experiment [5]; 68 µM in [7]; 75 µM in [12]; 79 µM in experiment [13]; 97 µM in experiment [14].
`c1ccc([Se][Se]c2ccccc2)cc1`: in [9], the Ratio came out at 82. Moreover, in experiment [10], the catalytic constant (kcat) is 0.0045 s⁻¹. For the same compound, the fold change (FC) in experiment [21] is 2.5. In [15], the Km came to 1110 µM. Moreover, in experiment [18], the maximal velocity (Vmax) came out at 27.3 µM/min.
Turning to `COc1ccc(NC(=[Se])NCCCCCN2C[C@H](O)[C@@H](O)[C@H](O)[C@H]2CO)cc1`, the inhibition in the experiment with Helix pomatia was 7%; in the experiment on Escherichia coli, 15%; in the experiment on Aspergillus oryzae, 29%; in the experiment with Prunus dulcis, > 50%; in experiment [8], 20%; in the experiment on Saccharomyces cerevisiae, > 50%. Further, the inhibition in [17] and in [20] was > 50% throughout. The Ki came out at 83.1 µM at Acetylcholinesterase [2]; 58.8 µM on Acetylcholinesterase [6]; 510 µM on Alpha-mannosidase [25]; 36 µM in experiment [16]; 5.5 µM in experiment [19]. Moreover, the GI50 in [3] was 42 µM; in experiment [5] it was 42 µM; in experiment [7], 58 µM; in experiment [12] it was 82 µM; in experiment [13], 46 µM; in experiment [14], > 100 µM. The Ratio in experiment [9] turned out to be 640. For the same compound, the kcat in [10] came out at 0.035 s⁻¹. In addition, in experiment [15], the Km was determined as 410 µM. In [18], the Vmax was found to be 211 µM/min.
